Measured values as given in patent US12077503B2, “Substituted cyclic amides and their use as herbicides” (FMC CORPORATION, priority 2015, dated 2024).

How the values were obtained:
Format in all cases: in vivo
[1] = test system: pigweed (Amaranthus retroflexus); assay: Test A postemergence; conditions: Amaranthus retroflexus, post-emergence, 240 h, read-out: Plant response rating, Pigweed; for pest or weed control at 125 g/ha: 125 g ai/ha, postemergence, visual injury after approximately 10 d, 0 to 100 scale (0 no effect, 100 complete control); for pest or weed control at 31 g/ha: Postemergence, 31 g ai/ha, visual injury after approx. 10 d, 0 to 100 scale, 0 no effect, 100 complete control
Summary of the method: (§1)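 Greenhouse, ~10 d after spray; visual injury vs untreated controls, 0 = no effect, 100 = complete control. Preemergence: directed soil spray over planted seeds. Postemergence: plants 2–10 cm, 1–2 leaf stage. Loam/sand blend. Compound in non-phytotoxic solvent with surfactant.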

[2] = test system: ryegrass, Italian (Italian ryegrass, Lolium multiflorum); assay: Test A postemergence; conditions: Lolium multiflorum, post-emergence, 240 h, read-out: Plant response rating, Ryegrass, Italian; for pest or weed control at 125 g/ha: 125 g ai/ha, postemergence, visual injury after approximately 10 d, 0 to 100 scale (0 no effect, 100 complete control); for pest or weed control at 31 g/ha: Postemergence, 31 g ai/ha, visual injury after approx. 10 d, 0 to 100 scale, 0 no effect, 100 complete control
Summary of the method: as §1

[3] = test system: corn (Zea mays); assay: Test A postemergence; conditions: Zea mays, post-emergence, 240 h; for Corn plant response rating (crop injury, 0 = no effect, 100 = complete kill) at 125 g/ha: 125 g ai/ha, postemergence, visual injury after approximately 10 d, 0 to 100 scale (0 no effect, 100 complete control); for Corn plant response rating (crop injury, 0 = no effect, 100 = complete kill) at 31 g/ha: Postemergence, 31 g ai/ha, visual injury after approx. 10 d, 0 to 100 scale, 100 complete control
Summary of the method: as §1

[4] = test system: Galium (catchweed bedstraw, Galium aparine); assay: Test A postemergence; conditions: Galium, post-emergence, 240 h, read-out: Plant response rating, Galium; for pest or weed control at 125 g/ha: 125 g ai/ha, postemergence, visual injury after approximately 10 d, 0 to 100 scale (0 no effect, 100 complete control); for pest or weed control at 31 g/ha: Postemergence, 31 g ai/ha, visual injury after approx. 10 d, 0 to 100 scale, 0 no effect, 100 complete control
Summary of the method: as §1

[5] = test system: barnyardgrass (Echinochloa crus-galli); assay: Test A postemergence; conditions: Echinochloa crus-galli, post-emergence, 240 h, read-out: Plant response rating, Barnyardgrass; for pest or weed control at 125 g/ha: 125 g ai/ha, postemergence, visual injury after approximately 10 d, 0 to 100 scale (0 no effect, 100 complete control); for pest or weed control at 31 g/ha: Postemergence, 31 g ai/ha, visual injury after approx. 10 d, 0 to 100 scale, 0 no effect, 100 complete control
Summary of the method: as §1

[6] = test system: Kochia (Kochia scoparia); assay: Test A postemergence; conditions: Bassia scoparia, post-emergence, 240 h, read-out: Plant response rating, Kochia; for pest or weed control at 125 g/ha: 125 g ai/ha, postemergence, visual injury after approximately 10 d, 0 to 100 scale (0 no effect, 100 complete control); for pest or weed control at 31 g/ha: Postemergence, 31 g ai/ha, visual injury after approx. 10 d, 0 to 100 scale, 0 no effect, 100 complete control
Summary of the method: as §1

[7] = test system: blackgrass (Alopecurus myosuroides); assay: Test A postemergence; conditions: Alopecurus myosuroides, post-emergence, 240 h, read-out: Plant response rating, Blackgrass; for pest or weed control at 125 g/ha: 125 g ai/ha, postemergence, visual injury after approximately 10 d, 0 to 100 scale (0 no effect, 100 complete control); for pest or weed control at 31 g/ha: Postemergence, 31 g ai/ha, visual injury after approx. 10 d, 0 to 100 scale, 0 no effect, 100 complete control
Summary of the method: as §1

[8] = test system: ragweed (common ragweed, Ambrosia elatior); assay: Test A postemergence; conditions: Ambrosia artemisiifolia, post-emergence, 240 h, read-out: Plant response rating, Ragweed; for pest or weed control at 125 g/ha: 125 g ai/ha, postemergence, visual injury after approximately 10 d, 0 to 100 scale (0 no effect, 100 complete control); for pest or weed control at 31 g/ha: Postemergence, 31 g ai/ha, visual injury after approx. 10 d, 0 to 100 scale, 0 no effect, 100 complete control
Summary of the method: as §1

[9] = test system: giant foxtail (Setaria faberii); assay: Test A postemergence; conditions: Setaria faberi, post-emergence, 240 h, read-out: Plant response rating, Foxtail, Giant; for pest or weed control at 125 g/ha: 125 g ai/ha, postemergence, visual injury after approximately 10 d, 0 to 100 scale (0 no effect, 100 complete control); for pest or weed control at 31 g/ha: Postemergence, 31 g ai/ha, visual injury after approx. 10 d, 0 to 100 scale, 0 no effect, 100 complete control
Summary of the method: as §1

[10] = test system: pigweed (Amaranthus retroflexus); assay: Test A preemergence; conditions: Amaranthus retroflexus, pre-emergence, 240 h, read-out: Plant response rating, Pigweed; for pest or weed control at 125 g/ha: 125 g ai/ha, preemergence, visual rating after approx. 10 d, 0 to 100 scale where 0 is no effect and 100 is complete control; for pest or weed control at 31 g/ha: Preemergence, 31 g ai/ha, 0 to 100 scale (0 no effect, 100 complete control)
[11] = test system: ryegrass, Italian (Italian ryegrass, Lolium multiflorum); assay: Test A preemergence; conditions: Lolium multiflorum, pre-emergence, 240 h, read-out: Plant response rating, Ryegrass, Italian; for pest or weed control at 125 g/ha: 125 g ai/ha, preemergence, visual rating after approx. 10 d, 0 to 100 scale where 0 is no effect and 100 is complete control; for pest or weed control at 31 g/ha: Preemergence, 31 g ai/ha, 0 to 100 scale (0 no effect, 100 complete control)
Summary of the method: as §1

[12] = test system: barnyardgrass (Echinochloa crus-galli); assay: Test A preemergence; conditions: Echinochloa crus-galli, pre-emergence, 240 h, read-out: Plant response rating, Barnyardgrass; for pest or weed control at 125 g/ha: 125 g ai/ha, preemergence, visual rating after approx. 10 d, 0 to 100 scale where 0 is no effect and 100 is complete control; for pest or weed control at 31 g/ha: Preemergence, 31 g ai/ha, 0 to 100 scale (0 no effect, 100 complete control)
Summary of the method: as §1

[13] = test system: Kochia (Kochia scoparia); assay: Test A preemergence; conditions: Bassia scoparia, pre-emergence, 240 h, read-out: Plant response rating, Kochia; for pest or weed control at 125 g/ha: 125 g ai/ha, preemergence, visual rating after approx. 10 d, 0 to 100 scale where 0 is no effect and 100 is complete control; for pest or weed control at 31 g/ha: Preemergence, 31 g ai/ha, 0 to 100 scale (0 no effect, 100 complete control)
Summary of the method: as §1

[14] = test system: ragweed (common ragweed, Ambrosia elatior); assay: Test A preemergence; conditions: Ambrosia artemisiifolia, pre-emergence, 240 h, read-out: Plant response rating, Ragweed; for pest or weed control at 125 g/ha: 125 g ai/ha, preemergence, visual rating after approx. 10 d, 0 to 100 scale where 0 is no effect and 100 is complete control; for pest or weed control at 31 g/ha: Preemergence, 31 g ai/ha, 0 to 100 scale (0 no effect, 100 complete control)
Summary of the method: as §1

[15] = test system: giant foxtail (Setaria faberii); assay: Test A preemergence; conditions: Setaria faberi, pre-emergence, 240 h, read-out: Plant response rating, Foxtail, Giant; for pest or weed control at 125 g/ha: 125 g ai/ha, preemergence, visual rating after approx. 10 d, 0 to 100 scale where 0 is no effect and 100 is complete control; for pest or weed control at 31 g/ha: Preemergence, 31 g ai/ha, 0 to 100 scale (0 no effect, 100 complete control)
Summary of the method: as §1

| SMILES | pest or weed control at 125 g/ha [1] | pest or weed control at 31 g/ha [1] | pest or weed control at 125 g/ha [2] | pest or weed control at 31 g/ha [2] | Corn plant response rating (crop injury, 0 = no effect, 100 = complete kill) at 125 g/ha [3] | Corn plant response rating (crop injury, 0 = no effect, 100 = complete kill) at 31 g/ha [3] | pest or weed control at 125 g/ha [4] | pest or weed control at 31 g/ha [4] | pest or weed control at 125 g/ha [5] | pest or weed control at 31 g/ha [5] | pest or weed control at 125 g/ha [6] | pest or weed control at 31 g/ha [6] | pest or weed control at 125 g/ha [7] | pest or weed control at 31 g/ha [7] | pest or weed control at 125 g/ha [8] | pest or weed control at 31 g/ha [8] | pest or weed control at 125 g/ha [9] | pest or weed control at 31 g/ha [9] | pest or weed control at 125 g/ha [10] | pest or weed control at 31 g/ha [10] | also measured |
| --- | --- | --- | --- | --- | --- | --- | --- | --- | --- | --- | --- | --- | --- | --- | --- | --- | --- | --- | --- | --- | --- |
| Cc1cc([C@H]2CN(C)C(=O)[C@@H]2C(=O)Nc2cccc(F)c2F)cc(C)c1C [Compound 796] | 20% | 0% | 40% | 0% | 90% | 70% | 40% | 0% | 90% | 80% | 0% | 0% | 30% | 0% | 0% | 0% | 90% | 80% | 40% | 20% | pest or weed control at 125 g/ha [11]: 20%; pest or weed control at 31 g/ha [11]: 0%; pest or weed control at 125 g/ha [12]: 90%; pest or weed control at 31 g/ha [12]: 70%; pest or weed control at 125 g/ha [13]: 20%; pest or weed control at 31 g/ha [13]: 0%; pest or weed control at 125 g/ha [14]: 0%; pest or weed control at 31 g/ha [14]: 0%; pest or weed control at 125 g/ha [15]: 90%; pest or weed control at 31 g/ha [15]: 90% |
| Cc1cc([C@H]2CN(C)C(=O)[C@@H]2C(=O)Nc2ccccc2F)cc(C)c1C [Compound 797] | 20% | 0% | 40% | 0% | 70% | 60% | 30% | 0% | 90% | 90% | 0% | 0% | 0% | 0% | 0% | 0% | 90% | 80% | 20% | 0% | pest or weed control at 125 g/ha [11]: 50%; pest or weed control at 31 g/ha [11]: 0%; pest or weed control at 125 g/ha [12]: 90%; pest or weed control at 31 g/ha [12]: 80%; pest or weed control at 125 g/ha [13]: 20%; pest or weed control at 31 g/ha [13]: 0%; pest or weed control at 125 g/ha [14]: 0%; pest or weed control at 31 g/ha [14]: 0%; pest or weed control at 125 g/ha [15]: 90%; pest or weed control at 31 g/ha [15]: 90% |
